# Test results reported in patent US11524012B1, “Quinolone analogs and their salts, compositions, and method for their use” (Senhwa Biosciences, Inc., priority 2018, dated 2022).
# Experiments:
# [1] = tested on: DLD-1 BRCA2−/− (HD 105-007); assay: Anti-proliferation assay 144 h (ATPlite); type: cell-based; conditions: for Fold Sensitivity of BRCA2^-/- line: BRCA2^-/- line relative to DLD-1 Parental line; for Fold Sensitivity of BRCA2^-/- line / IC50: 144 h proliferation assay; for IC50: Homo sapiens, DLD-1, ATPlite, read-out: Relative IC50, DLD-1 BRCA2^-/-
# Experimental: (§1) The sensitivity of DLD-1 Parental and BRCA2−/− isogenic cell lines Compound I and Compounds 1 and 7-10 were evaluated in 144 h proliferations assays. Cells were seeded into 384-well plates in McCoy's 5A medium supplemented with 10% FBS at the seeding densities indicated below and allowed to adhere overnight prior to addition of compound or vehicle control. Compounds were weighed out and stock solutions in DMSO were made immediately prior to treatment of cells. Serial dilutions of compounds were prepared in DMSO and diluted in media before being added to cells in quadruplicate to give the final concentrations indicated on graphs (10 μM top concentration, 9-point semi-log dilution series, 0.2% DMSO final concentration for all treatments). Cells were incubated with compounds for 144 h at 37° C., 5% C02 in a humidified atmosphere. At the assay endpoint, ATPlite (Perkin Elmer) reagent was added at a volume equal to the volume of cell culture medium already present in each well and the plates processed as per the manufacturer's instructions. Media only background values were subtract and ted and the data was analyzed using a 4-parameter logistic equation in GraphPad Prism. DLD-1 Parental (HD PAR-008) DLD-1 BRCA2−/− (HD 105-007) used.
# [2] = tested on: DLD-1 Parental (HD PAR-008); assay: Anti-proliferation assay 144 h (ATPlite); type: cell-based; conditions: Homo sapiens, 144 h proliferation assay, * = value should be considered as approximate, read-out: Relative IC50, DLD-1 Parental
# Experimental: as §1
# [3] = Stability of stock solutions and of spiked human plasma (LC/MS/MS method validation); type: physicochemical; conditions: refrigeration (2° C. to 8° C.)
# Experimental: A reference standard stock solution of Compound I was prepared by weighing the reference standard and dissolving it in a solution of 50:50:0.1 (v/v) mixture of ACN:deionized water:formic acid, followed by vortex-mixing and sonication. This stock solution was used for preparation of the calibration standards. Another stock solution of Compound I was prepared following the same procedure and was used for preparation of the QC samples. Both stock solutions were prepared previously and stored at refrigeration (2° C. to 8° C.) prior to use on the day of assay. […] Both solutions were used within the established stability timeframe.
# The internal standard stock solution was previously prepared by weighing Compound A (2-(4-Methyl-piperazin-1-yl)-5-oxo-5H-7-thia-1,11b-diaza-benzo[c]fluorene-6-carboxylic acid (5-methyl-pyrazin-2-ylmethyl)-amide) and dissolving it in a solution of 50:50:0.1 (v/v) mixture of ACN:deionized water:formic acid. This stock solution was stored at refrigeration (2° C. to 8° C.) prior to use. […] This solution was used within the established stability timeframe. On the day of assay, this solution was further diluted with a solution of 50:50:0.1 (v/v) mixture of ACN:deionized water:formic acid into a solution for spiking.
# This assay method was based on a nominal quantitation range of 5.00 ng/mL to 5000 ng/mL. Validation results met their acceptance criteria for the assessments of calibration range, assay accuracy and precision, hemolysis matrix effects, lipidemic matrix effects, selectivity and specificity, dilution integrity, and assay ruggedness with respect to changing analysts and instrument, and over the run time anticipated for a prospective test sample run. Chromatographic carryover was not observed. A 6-minute assay run time was validated. […] (−63° C. to −77° C.) and following 4 cycles of freeze/thaw.
SMILES,IC50 [1] [nM],stock solution stable (50:50:0.1 ACN:deionized water:formic acid) [3] [days],sensitivity of the BRCA2 null line relative to the parental line (in words) ([1]; 144 h),Fold Sensitivity of BRCA2^-/- line [1],IC50 [2] [nM]
"Cc1cnc(CNC(=O)c2c(=O)c3ccc(N4CCC[N+](C)([O-])CC4)nc3n3c2sc2ccccc23)cn1 (centres unmarked) [Compound 9, 2-(4-methyl-4-oxidodiazepan-4-ium-1-yl)-N-((5-methylpyrazin-2-yl)methyl)-5-oxo-5H-benzo[4,5]thiazolo[3,2-a][1,8]naphthyridine-6-carboxamide]",1590,–,–,5.5,~8780
"Cc1cnc(C(=O)NC(=O)c2c(=O)c3ccc(N4CCCN(C)CC4)nc3n3c2sc2ccccc23)cn1 [Compound 10, 2-(4-methyl-1,4-diazepan-1-yl)-N-((5-methylpyrazin-2-yl)carbonyl)-5-oxo-5H-benzo[4,5]thiazolo[3,2-a][1,8]naphthyridine-6-carboxamide]",620,–,–,2.5,1580
"Cc1cnc(CNC(=O)c2c(=O)c3ccc(N4CCN(C)CC4)nc3n3c2sc2ccccc23)cn1 [Compound A, 2-(4-Methyl-piperazin-1-yl)-5-oxo-5H-7-thia-1,11b-diaza-benzo[c]fluorene-6-carboxylic acid (5-methyl-pyrazin-2-ylmethyl)-amide, reference compound]",–,384,–,–,–

# Second part, led by results:
IC50 [1] [nM],stock solution stable (50:50:0.1 ACN:deionized water:formic acid) [3] [days],SMILES,sensitivity of the BRCA2 null line relative to the parental line (in words) ([1]; 144 h),Fold Sensitivity of BRCA2^-/- line [1],IC50 [2] [nM]
4.7,–,"CN1CCCN(c2ccc3c(=O)c(C(N)=O)c4sc5ccccc5n4c3n2)CC1 [Compound 1, 2-(4-methyl-1,4-diazepan-1-yl)-5-oxo-5H-benzo[4,5]thiazolo[3,2-a][1,8]naphthyridine-6-carboxamide]",extremely sensitive,400,1880
560,–,"Cc1cnc(CNC(=O)c2c(=O)c3ccc(N4CCCNCC4)nc3n3c2sc2ccccc23)cn1 [Compound 7, 2-(1,4-diazepan-1-yl)-N-((5-methylpyrazin-2-yl)methyl)-5-oxo-5H-benzo[4,5]thiazolo[3,2-a][1,8]naphthyridine-6-carboxamide]",–,21,~12000
7.2,–,"CN1CCCN(c2ccc3c(=O)c(C(=O)NCCCN4CCCCCC4=O)c4sc5ccccc5n4c3n2)CC1 [Compound 8, 2-(4-methyl-1,4-diazepan-1-yl)-N-(3-(2-oxoazepan-1-yl)propyl)-5-oxo-5H-benzo[4,5]thiazolo[3,2-a][1,8]naphthyridine-6-carboxamide]",–,74,530
